According to PubChem BioAssay (NCI):
“And” between values parts separate entries of the source, which are not always exact repeats. Identical values can stand only once.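 All cell lines were grown in 96-well plates and treated with compound for 48 hours. GI50 marks 50% less growth. TGI: concentration producing complete growth inhibition.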

Experiments:
Assay in all cases: NCI anticancer screen, dose series, 48 h
[1] = tested on: BT-549 breast
[2] = tested on: EKVX NSCLC
[3] = tested on: HCT-116 colon
[4] = tested on: M14 melanoma
[5] = tested on: MALME-3M melanoma
[6] = tested on: PC-3 prostate
[7] = tested on: SF-295 CNS
[8] = tested on: TK-10 renal
[9] = tested on: DLD-1 colon
[10] = tested on: SNB-78 CNS
[11] = tested on: XF 498 CNS
[12] = tested on: KM20L2 colon

`Cc1c(C(N)=O)sc2c1c(=O)n(Cc1ccccc1)c1nnc(-c3ccc(Br)cc3)n21` showed a GI50 [1] of 3.85 µM, a TGI [1] of 18.9 µM and a GI50 [2] of 3.11 µM. For the same molecule, the TGI [2] was 21.6 µM, the GI50 [3] was 1.75 µM and the TGI [3] was 13.6 µM. The GI50 [4] was 1.51 µM, the TGI [4] was 3.67 µM and the GI50 [5] was 2.94 µM. The TGI [5] was 13.7 µM, the GI50 [6] was 4.06 µM and the TGI [6] was 22.3 µM. For the same molecule, the GI50 [7] was 1.01 µM, the TGI [7] was 11.8 µM and the GI50 [8] was 3.33 µM. It also gave a TGI [8] of 16.3 µM.
In the case of `CCN(CC)CCn1[nH]c2c3ccc(=O)cc3sc3c(NCCN)ccc1c32`, the TGI [9] is reported as 10.1 µM, the TGI [2] is reported as 7.13 µM and the TGI [3] is reported as 2.19 µM. For the same molecule, the TGI [5] was 2.73 µM, the TGI [7] was 8.07 µM and the TGI [10] was 4.49 µM. The TGI [8] was 11.3 µM and the TGI [11] was 0.974 µM.
For `NNC(=O)c1ccc(OCc2nc3ccccc3[nH]2)cc1`, the TGI [1] was > 100 µM, the TGI [2] was > 100 µM and the TGI [3] was > 100 µM. The TGI [4] was > 100 µM, the TGI [5] was > 100 µM and the TGI [6] was > 100 µM. The TGI [7] was > 100 µM and the TGI [8] was > 100 µM.
`CN1CCN(CCOc2cc(OC3CCOCC3)c3c(Nc4c(Cl)ccc5c4OCO5)ncnc3c2)CC1` was tested, and the GI50 [1] was 15.6 µM and > 10 µM, the TGI [1] was 30.7 µM and > 10 µM and the GI50 [2] was 1.04 µM and 0.732 µM. The TGI [2] was 57.6 µM and > 10 µM, the GI50 [3] was 8.75 µM and 2.76 µM and the TGI [3] was 29.2 µM and > 10 µM. For the same molecule, the GI50 [4] was 15.4 µM and > 10 µM, the TGI [4] was 31.3 µM and > 10 µM and the GI50 [5] was 14.1 µM and > 10 µM. For the same molecule, the TGI [5] was 30.1 µM and > 10 µM, the GI50 [6] was 19.3 µM and > 10 µM and the TGI [6] was > 100 µM. For the same molecule, the GI50 [7] was 5.83 µM and > 10 µM, the TGI [7] was 25.3 µM and > 10 µM and the GI50 [8] was 0.671 µM and 0.517 µM. The TGI [8] was 6.4 µM and > 10 µM.
`CCN1C[C@]2(COC)[C@H](O)C[C@H](OC)[C@]34C1[C@H]([C@H](OC)[C@H]23)[C@]1(OC(C)=O)[C@H]2[C@@H](OC(=O)c3ccccc3)[C@](O)(C[C@H]24)[C@@H](OC)[C@@H]1O` was tested, and the TGI [1] was > 100 µM, the TGI [2] was > 100 µM and the TGI [3] was > 100 µM. The TGI [4] was > 100 µM, the TGI [5] was > 100 µM and the TGI [6] was > 100 µM. The TGI [7] was > 100 µM and the TGI [8] was > 100 µM.
In the case of `Nc1nc(N)c2cc(Sc3cccc(C(F)(F)F)c3)ccc2n1`, the TGI [1] is reported as 20.5 µM, the TGI [2] is reported as 19.8 µM and the TGI [3] is reported as 1.33 µM. It also gave a TGI [4] of 2.21 µM, a TGI [5] of 2.91 µM and a GI50 [6] of 0.698 µM. For the same molecule, the TGI [6] was 14.9 µM, the TGI [7] was 8.97 µM and the TGI [8] was 14 µM.
Work on `Cc1ccc(-c2nc(-c3cn(C)c4ncccc34)cs2)cc1` yielded a GI50 [1] of 8 µM, a TGI [1] of 32.4 µM and a GI50 [2] of 4.61 µM. It also gave a TGI [2] of 43.7 µM, a GI50 [3] of 3.11 µM and a TGI [3] of 12.3 µM. The GI50 [4] was 2.35 µM, the TGI [4] was 8.18 µM and the GI50 [5] was 4.85 µM. For the same molecule, the TGI [5] was 26.5 µM, the GI50 [6] was 4.49 µM and the TGI [6] was > 44.1 µM. The GI50 [7] was 2.3 µM, the TGI [7] was 11.1 µM and the GI50 [8] was 6.74 µM. For the same molecule, the TGI [8] was 21.6 µM.
With `C[C@@H]1COCCN1c1cc(C2([S@@](C)(=N)=O)CC2)nc(-c2ccnc3[nH]ccc23)n1` the GI50 [1] was 2.68 µM, the TGI [1] was 23.7 µM and the GI50 [2] was 5.78 µM. For the same molecule, the TGI [2] was 67.4 µM, the GI50 [3] was 7.38 µM and the TGI [3] was > 100 µM. For the same molecule, the GI50 [4] was 3.52 µM, the TGI [4] was 26.4 µM and the GI50 [5] was 7.32 µM. For the same molecule, the TGI [5] was 54.6 µM, the GI50 [6] was 10.3 µM and the TGI [6] was > 100 µM. The GI50 [7] was 3.35 µM, the TGI [7] was 32.5 µM and the GI50 [8] was 6.71 µM. The TGI [8] was > 71.9 µM.
In the case of `NC(=Nc1ccc(N)cc1)C(N)=Nc1ccc(N)cc1`, the GI50 [1] is reported as > 100 µM, the TGI [1] is reported as > 100 µM and the GI50 [2] is reported as > 100 µM. The TGI [2] was > 100 µM, the GI50 [3] was 92.5 µM and the TGI [3] was > 100 µM. For the same molecule, the GI50 [4] was > 100 µM, the TGI [4] was > 100 µM and the GI50 [5] was 45.9 µM. The TGI [5] was > 100 µM, the GI50 [6] was 98.6 µM and the TGI [6] was > 100 µM. The GI50 [7] was > 100 µM, the TGI [7] was > 100 µM and the GI50 [8] was > 100 µM. For the same molecule, the TGI [8] was > 100 µM.
In the case of `N#Cc1ccc2cc3c(cc2c1)OCO3`, the TGI [9] is reported as > 100 µM, the TGI [3] is reported as > 100 µM and the TGI [12] is reported as > 100 µM. For the same molecule, the TGI [4] was > 100 µM, the TGI [7] was > 100 µM and the TGI [10] was > 100 µM.
In the case of `O=C(CCc1nnc2s/c(=C\c3ccccc3Cl)c(=O)n12)Nc1cc(Cl)ccc1Cl`, the TGI [9] is reported as > 100 µM, the TGI [2] is reported as > 100 µM and the TGI [3] is reported as > 100 µM. For the same molecule, the TGI [4] was > 100 µM, the TGI [5] was > 100 µM and the TGI [7] was > 100 µM. The TGI [10] was > 100 µM, the TGI [8] was > 100 µM and the TGI [11] was > 100 µM.
For `Cc1cnc(Nc2ccc(N3CCN(C)CC3)cc2)nc1Nc1ccc(Cl)c(NS(=O)(=O)C(C)(C)C)c1`, the GI50 [1] was 0.872 µM, the TGI [1] was 2.59 µM and the GI50 [2] was 0.311 µM. The TGI [2] was 4.4 µM, the GI50 [3] was 0.0917 µM and the TGI [3] was 2.73 µM. For the same molecule, the GI50 [4] was 0.112 µM, the TGI [4] was 1.78 µM and the GI50 [5] was 0.69 µM. For the same molecule, the TGI [5] was 2.62 µM, the GI50 [6] was 0.408 µM and the TGI [6] was 16.9 µM. The GI50 [7] was 0.524 µM, the TGI [7] was 2.95 µM and the GI50 [8] was 0.0638 µM. For the same molecule, the TGI [8] was 0.936 µM.
With `CCOC(=O)c1ccc2c(c1)[n+](=O)c(C(C)=O)c(C(F)(F)F)n2[O-]` the GI50 [1] was 1.54 µM, the TGI [1] was 3.21 µM and the GI50 [2] was 1.82 µM. It also gave a TGI [2] of 3.96 µM, a GI50 [3] of 1.39 µM and a TGI [3] of 3.34 µM. For the same molecule, the GI50 [4] was 1.7 µM, the TGI [4] was 3.67 µM and the GI50 [5] was 1.4 µM. For the same molecule, the TGI [5] was 2.83 µM, the GI50 [6] was 0.885 µM and the TGI [6] was 2.38 µM. It also gave a GI50 [7] of 1.37 µM, a TGI [7] of 3.01 µM and a GI50 [8] of 1.39 µM. For the same molecule, the TGI [8] was 3.25 µM.
`Cc1cccc(NC(=O)/C=C/c2ccc([N+](=O)[O-])cc2)c1` was tested, and the TGI [1] was > 51.8 µM, the TGI [2] was > 56.5 µM and the TGI [3] was > 52.9 µM. For the same molecule, the TGI [4] was > 59.4 µM, the TGI [5] was 66.9 µM and the TGI [6] was 28.6 µM. For the same molecule, the TGI [7] was > 58 µM and the TGI [8] was > 56.8 µM.
For `CCS(=O)(=O)c1ccc(OC)c(Nc2ncc(-c3ccccc3Cl)o2)c1`, the GI50 [1] was 11.8 µM, the TGI [1] was > 25 µM and the GI50 [2] was > 21.3 µM. The TGI [2] was > 25 µM, the GI50 [3] was 10.1 µM and the TGI [3] was > 25 µM. For the same molecule, the GI50 [4] was 12.5 µM, the TGI [4] was > 25 µM and the GI50 [5] was > 25 µM. For the same molecule, the TGI [5] was > 25 µM, the GI50 [6] was 11.4 µM and the TGI [6] was > 25 µM. For the same molecule, the GI50 [7] was 9.43 µM, the TGI [7] was > 25 µM and the GI50 [8] was 16.6 µM. The TGI [8] was > 25 µM.
`Cc1cn(-c2ccc(S(C)(=O)=O)cc2)c(-c2ccc(Cl)cc2)n1` was tested, and the GI50 [1] was > 100 µM, the TGI [1] was > 100 µM and the GI50 [2] was > 100 µM. For the same molecule, the TGI [2] was > 100 µM, the GI50 [3] was > 100 µM and the TGI [3] was > 100 µM. For the same molecule, the GI50 [4] was > 100 µM, the TGI [4] was > 100 µM and the GI50 [5] was > 100 µM. For the same molecule, the TGI [5] was > 100 µM, the GI50 [6] was > 100 µM and the TGI [6] was > 100 µM. The GI50 [7] was > 100 µM, the TGI [7] was > 100 µM and the GI50 [8] was > 100 µM. The TGI [8] was > 100 µM.
Work on `COc1ccc(C(CC(=O)c2ccccc2)C(C(=O)c2ccccc2)C(c2ccc(OC)cc2)C2C(=O)NC(=S)NC2=O)cc1` (stereo unspecified) yielded a GI50 [1] of 12.8 µM, a TGI [1] of 49.8 µM and a GI50 [2] of 2.44 µM. It also gave a TGI [2] of 57.2 µM, a GI50 [3] of 15.4 µM and a TGI [3] of 37.4 µM. The GI50 [4] was 36.9 µM, the TGI [4] was > 100 µM and the GI50 [5] was 19.8 µM. The TGI [5] was 58.4 µM, the GI50 [6] was 5.61 µM and the TGI [6] was > 100 µM. The GI50 [7] was 11.4 µM, the TGI [7] was 42.7 µM and the GI50 [8] was 18.7 µM. For the same molecule, the TGI [8] was > 100 µM.
